According to ChEMBL document CHEMBL5154759, “Discovery of Aryl Benzoyl Hydrazide Derivatives as Novel Potent Broad-Spectrum Inhibitors of Influenza A Virus RNA-Dependent RNA Polymerase (RdRp)” (J Med Chem, 2022):
The source made the active and inactive calls. No cut-off for these calls is given here.

Experiments:
Influenza A virus [1] = test: microbe, parasite or virus in culture; conditions: H5N1, MDCK, 48 h
Influenza A virus [2] = conditions: mdck
Influenza A virus [3] = assay type: functional, organism-based; conditions: H5N1, MDCK, time 12.0 hrs
Influenza A virus [4] = assay type: functional, organism-based; conditions: A/Puerto Rico/8/34 (H1N1), MDCK, 48 h
Influenza A virus [5] = assay type: functional, organism-based; conditions: A/Anhui/1/2013 (H7N9), MDCK, 48 h
Influenza A virus [6] = assay type: functional, organism-based; conditions: A/Vietnam/1194/2004 (H5N1), MDCK, 48 h
Influenza A virus [7] = assay type: functional, organism-based; conditions: A/Aichi/2/68 (H3N2), MDCK, 48 h
Influenza A virus [8] = test: Antiviral activity against influenza A virus (A/Puerto Rico/8/34) H1N1; assay type: functional, organism-based; conditions: (A/Puerto Rico/8/34) H1N1, MDCK
Influenza A virus [9] = test: Antiviral activity against influenza A virus (A/Vietnam/1203/2004) H5N1; assay type: functional, organism-based; conditions: (A/Vietnam/1203/2004) H5N1, MDCK
[10] = Elimination half life in overnight fasted po dosed Sprague-Dawley rat measured at 0.25 to 24 hrs post dose by LC-MS/MS method; assay type: ADME, organism-based; conditions: in vivo, time 0.25-24 hrs, read-out: beta t1/2 (converted)
Influenza A virus [11] = assay type: functional, organism-based; conditions: H5N1, MDCK, dose 1.0 µM, time 48.0 hrs
[12] = AUC(0 to infinity) in overnight fasted po dosed Sprague-Dawley rat measured at 0.25 to 24 hrs post dose by LC-MS/MS method; assay type: ADME, organism-based; parameters: time upper 24 hrs, time lower 0.25 hrs, route po; conditions: in vivo
HEK293T [13] = test: Inhibition of influenza A/WSN/H1N1 virus RNA-dependent RNA polymerase activity in human 293 T cells co-transfected with pPOLI-Fluc assessed as reduction in luciferase activity at 0.1 uM incubated for 48 hrs by luciferase reporter gene assay relative to control; assay type: cell-based
HEK293T [14] = test: Inhibition of influenza A/WSN/H1N1 virus RNA-dependent RNA polymerase activity in human 293 T cells co-transfected with pPOLI-Fluc assessed as reduction of Fluc/Rluc ratio incubated for 48 hrs; assay type: cell-based; conditions: DDE = dose-dependent effect
Influenza A virus [15] = assay type: functional, organism-based; conditions: H5N1, MDCK
A549 = test: Induction of ROS generation in human A549 cells at 50 ug/ml incubated for 30 mins by DCFH-DA dye based fluorescence microscopy; assay type: functional, cell-based; conditions: dose 50.0 µg/ml
[16] = Oral bioavailability in overnight fasted Sprague-Dawley rat measured at 0.25 to 24 hrs post dose by LC-MS/MS method; assay type: ADME, organism-based; conditions: in vivo, time 0.25-24 hrs
HEK293T [17] = test: Inhibition of influenza A/WSN/H1N1 virus RNA-dependent RNA polymerase activity in human 293 T cells co-transfected with pPOLI-Fluc assessed as reduction in luciferase activity at 0.01 uM incubated for 48 hrs by luciferase reporter gene assay relative to control; assay type: cell-based
[18] = Elimination half life in overnight fasted Sprague-Dawley rat at 0.20 ml, iv measured at 0.083 to 24 hrs post dose by LC-MS/MS method; assay type: ADME, organism-based; conditions: in vivo, 0.2 ml, time 0.083-24 hrs, read-out: beta t1/2 (converted)
Influenza A virus [19] = assay type: functional; conditions: H5N1, MDCK, time 12 hrs
Influenza A virus [20] = assay type: functional, organism-based; conditions: H5N1, A549, dose 0.018 µM, time 1.0 hrs
[21] = Binding affinity to influenza A virus RNA-dependent RNA polymerase PB1 subunit expressed in human 293T cells assessed as dissociation constant by MST assay; conditions: hek293t
HEK293T [22] = test: Inhibition of influenza A/WSN/H1N1 virus RNA-dependent RNA polymerase activity in human 293 T cells co-transfected with pPOLI-Fluc assessed as reduction in luciferase activity incubated for 48 hrs by luciferase reporter gene assay; assay type: cell-based
[23] = Cmax in overnight fasted po dosed Sprague-Dawley rat plasma measured at 0.25 to 24 hrs post dose by LC-MS/MS method; assay type: ADME, organism-based; parameters: time upper 24 hrs, time lower 0.25 hrs, route po
[24] = Acute toxicity in BALB/c mouse infected with influenza A virus A/PR/8/34 assessed as reduction in body weight at 2000 mg/kg, po administered 3 times per day; assay type: organism-based; conditions: in vivo
[25] = Tmax in overnight fasted iv dosed Sprague-Dawley rat plasma measured at 0.083 to 24 hrs post dose by LC-MS/MS method; assay type: ADME, organism-based; conditions: time 0.083-24 hrs
[26] = Cmax in overnight fasted iv dosed Sprague-Dawley rat plasma measured at 0.083 to 24 hrs post dose by LC-MS/MS method; assay type: ADME, organism-based; parameters: time upper 24 hrs, time lower 0.083 hrs, route iv
[27] = AUC(0 to t) in overnight fasted iv dosed Sprague-Dawley rat measured at 0.083 to 24 hrs post dose by LC-MS/MS method; assay type: ADME, organism-based; parameters: time upper 24 hrs, time lower 0.083 hrs, route iv; conditions: in vivo
Influenza A virus [28] = assay type: functional, organism-based; conditions: H5N1, MDCK, dose 0.8 µM, time 12.0 hrs
Influenza A virus [29] = assay type: functional, A/PR/8/34; conditions: dose 20 mg/kg; route ig; time 1 hrs
[30] = Bioavailability in overnight fasted iv dosed Sprague-Dawley rat measured at 0.083 to 24 hrs post dose by LC-MS/MS method; assay type: ADME, organism-based; conditions: in vivo, time 0.083-24 hrs
Influenza A virus [31] = assay type: functional, organism-based; conditions: H5N1, MDCK, DDE = dose-dependent effect
[32] = Tmax in overnight fasted po dosed Sprague-Dawley rat plasma measured at 0.25 to 24 hrs post dose by LC-MS/MS method; assay type: ADME, organism-based; conditions: time 0.25-24 hrs
[33] = AUC(0 to infinity) in overnight fasted iv dosed Sprague-Dawley rat measured at 0.083 to 24 hrs post dose by LC-MS/MS method; assay type: ADME, organism-based; parameters: time 0.083-24 hrs, route iv; conditions: in vivo
[34] = Clearance in overnight fasted iv dosed Sprague-Dawley rat measured at 0.083 to 24 hrs post dose by LC-MS/MS method; assay type: ADME, organism-based; conditions: in vivo, time 0.083-24 hrs
[35] = AUC(0 to t) in overnight fasted po dosed Sprague-Dawley rat measured at 0.25 to 24 hrs post dose by LC-MS/MS method; assay type: ADME, organism-based; parameters: time 0.25-24 hrs, route po; conditions: in vivo
Influenza A virus [36] = assay type: functional, A/PR/8/34; conditions: dose 10 mg/kg; route po; time 1 hrs
Influenza A virus [37] = assay type: functional, organism-based; conditions: H5N1, MDCK, dose 0.03-100 µM, time 12.0 hrs, DDE = dose-dependent effect

N#Cc1ccc(C(=O)NNc2c(Br)cccc2Br)cc1
EC50 (Influenza A virus [1]): > 100000 nM

CN(C)c1ccc(C(=O)NNc2c(Br)cccc2Br)cc1
EC50 (Influenza A virus [1]): 31 nM

CCOc1ccc(C(=O)NNc2ccc(Br)cc2)cc1
EC50 (Influenza A virus [1]): > 100000 nM

Cc1cccc(C)c1NNC(=O)c1ccc(C(C)(C)C)cc1
EC50 (Influenza A virus [1]): 220 nM

CCN(CC)c1ccc(C(=O)NNc2c(Br)cccc2Br)cc1
EC50 (Influenza A virus [1]): 9.3 nM

COc1ccccc1C(=O)NNc1c(Br)cccc1Br
EC50 (Influenza A virus [1]): > 100000 nM

CCOc1ccc(C(=O)NNc2c(Br)cccc2Br)cc1
EC50 (Influenza A virus [1]): 34 nM

CN(C)c1ccc(C(=O)NNc2c(Br)cc(Br)cc2Br)cc1
EC50 (Influenza A virus [1]): 230 nM

CCOc1ccc(C(=O)NNc2c(Br)cc(Br)cc2Br)cc1
EC50 (Influenza A virus [1]): 4200 nM

CCOc1ccc(C(=O)N(C)Nc2c(Cl)cccc2Cl)cc1
EC50 (Influenza A virus [1]): > 100000 nM

CCOc1ccc(C(=O)NNc2c(C)cccc2Cl)cc1
EC50 (Influenza A virus [1]): 100 nM

CCOc1ccc(C(=O)NNc2c(F)cccc2F)cc1
EC50 (Influenza A virus [1]): 31000 nM

CC(=O)N[C@H]1[C@H]([C@H](O)[C@H](O)CO)OC(C(=O)O)=C[C@@H]1NC(=N)N [ZANAMIVIR]
EC50 (Influenza A virus [2]): 160 nM | EC50 (Influenza A virus [1]): 76 nM

O=C(NNc1c(Br)cccc1Br)c1ccc(Br)cc1
EC50 (Influenza A virus [1]): 22000 nM

O=C(NNc1c(Cl)cccc1Cl)c1cccs1
EC50 (Influenza A virus [1]): > 100000 nM

Nc1ccc(C(=O)NNc2c(Br)cccc2Br)cc1
EC50 (Influenza A virus [1]): 7800 nM

CCCOc1ccc(C(=O)NNc2c(Br)cccc2Br)cc1
EC50 (Influenza A virus [1]): 23 nM

CCOc1ccc(C(=O)NNc2cccc(Br)c2)cc1
EC50 (Influenza A virus [1]): > 100000 nM

CCCc1ccc(C(=O)NNc2c(Cl)cccc2Cl)cc1
EC50 (Influenza A virus [1]): 190 nM

COC(=O)c1ccc(C(=O)NNc2c(Br)cccc2Br)cc1
EC50 (Influenza A virus [1]): 330 nM

CCOc1ccc(C(=O)NNc2c(Cl)cccc2Cl)cc1
EC50 (Influenza A virus [1]): 77 nM

CN(C)c1ccc(C(=O)NNc2c(F)cccc2F)cc1
EC50 (Influenza A virus [1]): > 100000 nM

NC(=O)c1nc(F)cnc1O
Activity (Influenza A virus [3]): Active

O=C(NNc1c(Br)cccc1Br)c1ccc(OCC(F)(F)F)cc1
EC50 (Influenza A virus [1]): 34 nM

CCc1ccc(C(=O)NNc2c(Br)cc(Br)cc2Br)cc1
EC50 (Influenza A virus [1]): 4400 nM

O=C(NNc1c(Br)cccc1Br)c1ccc2ccccc2c1
EC50 (Influenza A virus [1]): 1200 nM

O=C(NNc1c(Br)cccc1Br)c1ccc(O)cc1
EC50 (Influenza A virus [1]): > 100000 nM

COc1ccc(C(=O)NNc2c(Br)cccc2Br)cc1
EC50 (Influenza A virus [1]): 2300 nM

O=C(NNc1c(Br)cccc1Br)c1ccc2c(c1)OCO2
EC50 (Influenza A virus [1]): 13000 nM

O=C(NNc1c(Br)cccc1Br)c1ccccc1
EC50 (Influenza A virus [1]): 81000 nM

O=C(NNc1c(Br)cccc1Br)c1cccnc1
EC50 (Influenza A virus [1]): > 100000 nM

CN(C)c1ccc(C(=O)NNc2c(Cl)cccc2Cl)cc1
EC50 (Influenza A virus [1]): 46 nM

COc1cccc(C(=O)NNc2c(Br)cccc2Br)c1
EC50 (Influenza A virus [1]): > 100000 nM

O=C(NNc1c(Br)cccc1Br)c1ccc(-c2ccccc2)cc1
EC50 (Influenza A virus [1]): 83 nM

O=C(O)c1ccc(C(=O)NNc2c(Br)cccc2Br)cc1
EC50 (Influenza A virus [1]): > 100000 nM

CCOc1ccc(C(=O)NNc2c(C)cccc2C)cc1
EC50 (Influenza A virus [1]): 460 nM

COc1ccc(C(=O)NNc2c(F)cccc2F)cc1
EC50 (Influenza A virus [1]): > 100000 nM

O=c1oc2cc(O)cc(O)c2c2ccccc12
EC50 (Influenza A virus [4]): 1700 nM | EC50 (Influenza A virus [5]): 1700 nM | EC50 (Influenza A virus [6]): 1700 nM | EC50 (Influenza A virus [7]): 1700 nM

CC(C)(C)c1ccc(C(=O)NNc2c(Br)cccc2Br)cc1
EC50 (Influenza A virus [1]): 37 nM

O=C(NNc1c(Br)cccc1Br)c1ccc2ncccc2c1
EC50 (Influenza A virus [1]): 24000 nM

O=C(O)[C@H]1C2CCC(CC2)[C@@H]1Nc1nc(-c2c[nH]c3ncc(F)cc23)ncc1F [PIMODIVIR]
EC50 (Influenza A virus [8]): 0.3 nM | EC50 (Influenza A virus [9]): 0.1 nM

CCOc1ccc(C(=O)Nc2c(Br)cccc2Br)cc1
EC50 (Influenza A virus [1]): > 100000 nM

CCc1ccc(C(=O)NNc2c(Br)cccc2Br)cc1
EC50 (Influenza A virus [1]): 78 nM

O=C(NNc1c(Cl)cccc1Cl)c1ccccc1
EC50 (Influenza A virus [1]): > 100000 nM

CCOc1ccc(C(=O)NNc2ccccc2Br)cc1
EC50 (Influenza A virus [1]): > 100000 nM

CCOc1ccc(C(=O)NNc2ccc(Br)cc2Br)cc1
EC50 (Influenza A virus [1]): > 100000 nM

O=C(NNc1c(Br)cccc1Br)c1ccc(N2CCOCC2)cc1
half-life [10]: 109 min | Activity (Influenza A virus [11]): Active | AUC(0-inf) [12]: 1710 ng·h/mL | inhibition (HEK293T [13]): 91% | Activity (HEK293T [14]): Dde | Activity (Influenza A virus [15]): Active | Activity (A549): Active | bioavailability [16]: 32.2% | inhibition (HEK293T [17]): 60% | half-life [18]: 90 min | inhibition at 0.03 µM (Influenza A virus [19]): > 50% | Activity (Influenza A virus [20]): Active | Kd [21]: 351 nM | Activity (HEK293T [22]): Active | Activity (Influenza A virus [3]): Active | Cmax [23]: 635 ng/mL | Activity [24]: Toxic | Tmax [25]: 4.8 min | EC50 (Influenza A virus [1]): 18 nM | Cmax [26]: 2520 ng/mL | AUC(0-t) [27]: 1480 ng·h/mL | Activity (Influenza A virus [28]): Active | Activity (Influenza A virus [29]): 70% | F [30]: 100% | Activity (Influenza A virus [31]): Dde | Tmax [32]: 25.2 min | AUC(0-inf) [33]: 1500 ng·h/mL | clearance [34]: 33.8 mL/min/kg | AUC(0-t) [35]: 1590 ng·h/mL | Activity (Influenza A virus [36]): 100% | Activity (Influenza A virus [37]): Dde

O=C(NNc1c(Br)cccc1Br)c1ccc(F)cc1
EC50 (Influenza A virus [1]): 88000 nM

O=C(NNc1c(Br)cccc1Br)c1ccc(B(O)O)cc1
EC50 (Influenza A virus [1]): > 100000 nM

Cc1ccc(C(=O)NNc2c(Cl)cccc2Cl)cc1
EC50 (Influenza A virus [1]): 4100 nM

CCCCOc1ccc(C(=O)NNc2c(Br)cccc2Br)cc1
EC50 (Influenza A virus [1]): 230 nM
